Results taken from patent US20020028938A1, “Prostaglandin endoperoxide H synthase biosynthesis inhibitors” (priority 1997, published 2002).

Columns and labels:
[1] = target: T1, recombinant human Cox-1 (r-hu Cox1) (Homo sapiens, UniProt P23219); experiment: Recombinant human PGHS-1 enzyme assay (RHUCX1); type: biochemical; settings: for inhibition at 100 µM / inhibition at 200 µM: read-out: RHUCX1 % Inh. at Dose; for IC50: read-out: RHUCX1 IC50 (parenthetical value)
T1 construct: made in house; host or cells: baculovirus/Sf9 insect cells (microsomes)
T1 sequence (P23219 24-599): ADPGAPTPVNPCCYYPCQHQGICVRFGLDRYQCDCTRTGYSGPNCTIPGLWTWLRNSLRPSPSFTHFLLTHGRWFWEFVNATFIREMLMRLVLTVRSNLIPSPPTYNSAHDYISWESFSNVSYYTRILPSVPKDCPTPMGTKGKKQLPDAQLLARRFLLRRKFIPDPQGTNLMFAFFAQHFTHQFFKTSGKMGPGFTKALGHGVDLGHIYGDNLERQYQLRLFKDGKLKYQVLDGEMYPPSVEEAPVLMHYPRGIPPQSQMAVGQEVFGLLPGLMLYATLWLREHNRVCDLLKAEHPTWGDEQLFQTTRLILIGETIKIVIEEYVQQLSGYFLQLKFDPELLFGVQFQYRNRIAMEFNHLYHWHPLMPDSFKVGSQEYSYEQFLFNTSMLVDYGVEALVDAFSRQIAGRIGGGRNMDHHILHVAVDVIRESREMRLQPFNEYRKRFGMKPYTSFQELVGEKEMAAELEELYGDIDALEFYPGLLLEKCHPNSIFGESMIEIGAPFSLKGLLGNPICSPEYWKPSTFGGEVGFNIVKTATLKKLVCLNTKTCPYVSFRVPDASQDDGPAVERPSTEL
Summary of the method: (§1)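 Recombinant enzyme reaction ran 2.5 minutes at room temperature, then was quenched with HCl and neutralized with NaOH. PGE2 formed with and without drug was quantified by EIA against standards in the same milieu. Percent inhibition versus control mean; IC50 by linear regression.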

[2] = target: T2, Human Whole Platelet Cyclooxygenase-1 (Homo sapiens, UniProt P23219); experiment: Human Whole Platelet Cyclooxygenase-1 assay (HWPX); type: cell-based; settings: for IC50: read-out: HWPX IC50 (parenthetical value)
T2 construct: from tissue; host or cells: human blood: isolated platelets (A4) or heparinised whole blood (A9)
T2 sequence (P23219 24-599): as above
Summary of the method: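 Washed platelets from healthy-donor ACD blood were pre-incubated with compound for 10 min, then stimulated with calcium ionophore A23187 (8.8 μM final) for 10 min. Reaction stopped with cold 6 mM EDTA; thromboxane in supernatants quantified with a commercial kit.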

[3] = test system: prostaglandin biosynthesis in vivo (pleural lavage eicosanoids); experiment: Rat carrageenan pleural inflammation (CIP) model
Description: (§2) For oral administration, test compounds were suspended on the day of use in 100% polyethyleneglycol (PEG 400) with a motorized homogenizer equipped with a Teflon-coated pestle (TRI-R Instrument, Jamaica, N.Y.).
(§3) To compare the mean responses of the treatment groups, analysis of variance was applied. Percent inhibition values were determined by comparing the individual treatment mean values to the mean of the control group. Linear regression was used to estimate IC50's/ED50's in appropriate assays.
Pleural inflammation was induced in male adrenalectomized Sprague-Dawley rats following the method of Vinegar et al., Fed. Proc. 1976, 35, 2447-2456. Animals were orally dosed with experimental compounds, 30 minutes prior to the intrapleural injection of 2% lambda carrageenan (Sigma Chemical Co., St. Louis Mo.). Four hours later the animals were euthanized and the pleural cavities lavaged with ice cold saline. The lavage fluid was then added to two volumes of ice cold methanol (final methanol concentration 66%) to lyse cells and precipitate protein. Eicosanoids were determined by EIA as described above.

[4] = target: T3, recombinant human Cox-2 (r-hu Cox-2) (Homo sapiens, UniProt P35354); experiment: Recombinant human PGHS-2 enzyme assay (RHUCX2); type: biochemical; settings: for IC50: read-out: RHUCX2 IC50 (parenthetical value); for inhibition at 0.01 µM / inhibition at 0.1 µM / inhibition at 1 µM: read-out: RHUCX2 % Inh. at Dose
T3 construct: made in house; host or cells: baculovirus/Sf9 insect cells (microsomes)
T3 sequence (P35354 18-604): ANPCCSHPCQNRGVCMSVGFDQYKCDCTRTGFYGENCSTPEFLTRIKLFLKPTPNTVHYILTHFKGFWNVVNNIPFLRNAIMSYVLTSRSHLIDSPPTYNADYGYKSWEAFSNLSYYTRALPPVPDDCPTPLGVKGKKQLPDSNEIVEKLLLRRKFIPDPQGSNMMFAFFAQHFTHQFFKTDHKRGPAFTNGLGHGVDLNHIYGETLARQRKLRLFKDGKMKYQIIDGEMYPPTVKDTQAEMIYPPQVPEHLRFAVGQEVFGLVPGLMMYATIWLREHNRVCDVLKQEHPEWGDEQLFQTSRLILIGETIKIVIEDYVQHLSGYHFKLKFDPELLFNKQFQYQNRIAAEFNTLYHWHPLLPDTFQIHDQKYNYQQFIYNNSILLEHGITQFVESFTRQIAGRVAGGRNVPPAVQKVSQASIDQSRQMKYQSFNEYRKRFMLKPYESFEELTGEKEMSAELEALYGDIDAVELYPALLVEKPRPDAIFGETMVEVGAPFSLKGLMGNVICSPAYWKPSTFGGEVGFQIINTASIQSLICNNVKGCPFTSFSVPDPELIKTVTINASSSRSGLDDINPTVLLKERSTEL
Summary of the method: as §1

[5] = target: T4, human amnionic whole cell cyclooxygenase-2 (WISH cells) (Homo sapiens, UniProt P35354); experiment: IL-1β induced PGE2 production in WISH cells; type: cell-based; settings: read-out: Wish IC50 (parenthetical value)
T4 construct: endogenous in cells; host or cells: human amnionic WISH cells, induced with IL-1beta
T4 sequence (P35354 18-604): T3 sequence (P35354 18-604)
Summary of the method: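 Confluent (80%) WISH cells were stimulated with 5 ng/ml IL-1β in serum-free Neuman-Tytell medium, with or without test compound in DMSO (0.01% v/v). PGE2 in the culture medium was measured by EIA against standards prepared in the same medium, read by optical density.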

[6] = test system: carrageenan induced paw edema; experiment: Carrageenan induced paw edema (CPE) in rats; type: in vivo; settings: 10 mpk oral, rat, 3 hours after carrageenan; read-out: CPE % Inhib. @ 10 mpk
Description: as §2, §3
Hingpaw edema was […] in male rats as described by Winter et al., Proc. Soc. Exp. Biol. Med., 1962, 111, 544. Briefly, male Sprague-Dawley rats weighing between 170 and 190 g were administered test compounds orally 1 hour prior to the subplantar injection of 0.1 ml of 1% sodium carrageenan (lambda carrageenan, Sigma Chemical Co., St Louis, Mo.) into the right hindpaw. Right paw volumes (ml) were measured immediately following injection of carrageenan for baseline volume measurements using a Buxco plethysmograph (Buxco Electronics, Inc., Troy, N.Y.). Three hours after the injection of carrageenan, right paws were remeasured and paw edema calculated for each rat by subtracting the zero time reading from the 3 hour reading. Data are reported as mean percent inhibition +/−SEM. Statistical significance of results was analyzed by Dunnetts multiple comparison test where p<0.05 was considered statistically significant.

[7] = test system: air pouch prostaglandin biosynthesis (Cox-2); experiment: Carrageenan induced air pouch prostaglandin biosynthesis model (CAP); type: in vivo, rat; settings: for inhibition in vivo at 3 mg/kg: 4 h, 3 mpk, rat, read-out: CAP % Inhib. @ 3 mpk; for ED50: Rattus norvegicus
Summary of the method: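 Male Sprague Dawley rats with dorsal air pouches (20 mL air day 0, 10 mL day 3) received 0.2% lambda carrageenan in saline into the pouch on day 7. Compounds dosed at 0.1 to 10 mg/kg 30 min before carrageenan; pouch lavaged 4 h later, prostaglandins measured by EIA. Percent inhibition versus control mean; ED50 by linear regression.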

CS(=O)(=O)c1ccc(-c2cnn(Cc3ccccc3)c(=O)c2-c2ccc(F)cc2)cc1 [Example 10, 2-Benzyl-4-(4-fluorophenyl)-5-[4-(methylsulfonyl)phenyl]-3(2H)-pyridazinone]
inhibition at 100 µM ([1]; 100 μM): 2%
IC50 [2]: 4100 nM
inhibition in vivo at 10 mg/kg ([3]; 4 h, 10 mpk oral, read-out: CIP % Inhib. @ 10 mpk): 44%
melting point: 101 to 103 °C

CS(=O)(=O)c1ccc(-c2cnn(CC(F)(F)F)c(=O)c2-c2ccc(Cl)c(F)c2)cc1 [Example 67]
CIP % Inhib. ([3]; 3 mpk oral): 40 @ 3 mpk %

CS(=O)(=O)c1ccc(-c2cnn(-c3cc(F)cc(F)c3)c(=O)c2-c2ccc(F)cc2)cc1 [Example 180]
RHUCX1 % Inh. at Dose (μM) ([1]; 100 μM): 8 @ 100%
RHUCX2 % Inh. at Dose (μM) ([4]; 0.1 μM): 48 @ 0.1%
RHUCX2 % Inh. at Dose (μM) ([4]; 1 μM): 78 @ 1%
CIP % Inhib. @ 10 mpk ([3]; 10 mpk oral): 34.5%

CC(C)(C)COc1c(-c2ccc(S(C)(=O)=O)cc2)cnn(CC(F)(F)F)c1=O [Example 261]
inhibition at 200 µM [1]: 0%
IC50 [4]: 161 nM
IC50 [2]: 34000 nM
IC50 [5]: 99 nM
inhibition in vivo at 10 mg/kg [6]: 28%
inhibition in vivo at 3 mg/kg [7]: 79%
melting point: 145 to 146 °C

CC(C)CCOc1c(-c2ccc(S(C)(=O)=O)cc2)cnn(-c2cccc(Cl)c2)c1=O [Example 339, 2-(3-Chlorophenyl)-4-(3-methylbutoxy)-5-[4-(methylsulfonyl)phenyl]-3(2H)-pyridazinone]
inhibition at 100 µM ([1]; 100 μM): 2%
IC50 [4]: 88 nM
IC50 [2]: 393 nM
IC50 [5]: 26 nM
inhibition in vivo at 10 mg/kg [6]: 43%
inhibition in vivo at 3 mg/kg [7]: 90.5%
ED50 [7]: 0.58 mg/kg
melting point: 134 to 135 °C

CC(C)CCc1c(-c2ccc(S(N)(=O)=O)cc2)cnn(-c2ccc(F)cc2)c1=O [Example 396, 2-(4-Fluorophenyl)-4-(3-methylbutyl)-5-[4-(aminosulfonyl)phenyl]-3(2H)-pyridazinone]
inhibition at 100 µM ([1]; 100 μM): 22%
IC50 [4]: 59 nM
IC50 [2]: 12700 nM
IC50 [5]: 20 nM
inhibition in vivo at 10 mg/kg [6]: 23%
inhibition in vivo at 3 mg/kg [7]: 85%
melting point: 180 to 183 °C

CC(C)COc1c(-c2ccc(S(N)(=O)=O)cc2)cnn(-c2ccc(F)c(F)c2)c1=O [Example 403, 2-(3,4-Difluorophenyl)-4-(2-methylpropoxy)-5-[4-(aminosulfonyl)phenyl]-3(2H)-pyridazinone]
IC50 [1]: 151000 nM
inhibition at 0.01 µM [4]: 36%
inhibition at 0.1 µM ([4]; 0.1 μM): 64%
inhibition at 1 µM ([4]; 1 μM): 92%
IC50 [2]: 902 nM
IC50 [5]: 18 nM
inhibition in vivo at 10 mg/kg [6]: 43%
inhibition in vivo at 3 mg/kg [7]: 68.5%
ED50 [7]: 0.35 mg/kg
melting point: 169 to 171 °C

CC(C)(C)COc1c(-c2ccc(S(N)(=O)=O)cc2)cnn(-c2ccc(F)c(F)c2)c1=O [Example 406, 2-(3,4-Difluorophenyl)-4-(2,2-dimethylpropoxy)-5-[4-(aminosulfonyl)phenyl]-3(2H)-pyridazinone]
inhibition at 100 µM ([1]; 100 μM): 23%
inhibition at 0.01 µM [4]: 18%
inhibition at 0.1 µM ([4]; 0.1 μM): 64%
inhibition at 1 µM ([4]; 1 μM): 100%
IC50 [2]: 1610 nM
IC50 [5]: 26 nM
inhibition in vivo at 10 mg/kg [6]: 23%
inhibition in vivo at 3 mg/kg [7]: 66.5%
melting point: 173 to 175 °C

CC(C)CCOc1c(-c2ccc(S(N)(=O)=O)cc2)cnn(-c2ccc(F)c(F)c2)c1=O [Example 445, 2-(3,4-Difluorophenyl)-4-(3-methyl-1-butoxy)-5-[4-(aminosulfonyl)phenyl]-3(2H)-pyridazinone]
IC50 [1]: 56600 nM
IC50 [4]: 69 nM
inhibition at 10 µM ([2]; 10 μM, read-out: HWPX % Inhib. at Dose): 22%
inhibition at 100 µM ([2]; 100 μM, read-out: HWPX % Inhib. at Dose): 100%
IC50 [5]: 25 nM
inhibition in vivo at 10 mg/kg [6]: 15%
inhibition in vivo at 3 mg/kg [7]: 73%
melting point: 149 to 151 °C

CC(C)(C)COc1c(-c2ccc(S(N)(=O)=O)cc2)cnn(CC(F)(F)F)c1=O [Example 446]
inhibition at 200 µM [1]: 0%
IC50 [4]: 373 nM
IC50 [2]: 24400 nM
IC50 [5]: 20 nM
inhibition in vivo at 10 mg/kg [6]: 44%
inhibition in vivo at 3 mg/kg [7]: 92%
ED50 [7]: 0.5 mg/kg
melting point: 123 to 124 °C

CC(C)COc1c(-c2ccc(S(N)(=O)=O)cc2)cnn(CC(F)(F)F)c1=O [Example 449, 2-(2,2,2-Trifluoroethyl)-4-(2-methylpropoxy)-5-[4-(aminosulfonyl)phenyl]-3(2H)-pyridazinone]
inhibition at 200 µM [1]: 5%
IC50 [4]: 129 nM
IC50 [2]: 40000 nM
IC50 [5]: 89 nM
inhibition in vivo at 10 mg/kg [6]: 23%
inhibition in vivo at 3 mg/kg [7]: 76%
ED50 [7]: 1.8 mg/kg
melting point: 170 to 172 °C

CC(C)(O)COc1c(-c2ccc(S(N)(=O)=O)cc2)cnn(-c2ccc(F)cc2)c1=O [Example 478, 2-(4-Fluorophenyl)-4-(2-hydroxy-2-methyl-1-propoxy)-5-[4-(aminosulfonyl)phenyl]-3(2H)-pyridazinone]
inhibition at 100 µM ([1]; 100 μM): 33%
IC50 [4]: 810 nM
IC50 [2]: 500 nM
IC50 [5]: 108 nM
inhibition in vivo at 10 mg/kg [6]: 26%
inhibition in vivo at 3 mg/kg [7]: 75%
melting point: 155 to 158 °C
